According to patent US20100093748A1, “SUBSTITUTED PIPERIDINES HAVING PROTEIN KINASE INHIBITING ACTIVITY” (ASTEX THERAPEUTICS LIMITED, priority 2006, published 2010):
pIC50: −log10 of the molar value.

Target: T1, PKB-PIF fusion protein (Homo sapiens, UniProt P31751)
T1 construct: PIF (fusion partner); made in house
Assay: Measurement of PKB kinase inhibitory activity (IC50), radiometric filter plate assay
Assay type: biochemical
Conditions: 0.6 nM enzyme, 30 μM ATP, AKTide-2T substrate, 20 minutes
Source text: The inhibition of protein kinase B (PKB) activity by compounds can be determined essentially as described by Andjelkovic et al. (Mol. Cell. Biol. 19, 5061-5072 (1999)) but using a fusion protein described as PKB-PIF and described in full by Yang et al (Nature Structural Biology 9, 940-944 (2002)). The protein is purified and activated with PDK1 as described by Yang et al. The peptide AKTide-2T (H-A-R-K-R-E-R-T-Y-S-F-G-H-H-A-OH) obtained from Calbiochem (#123900) is used as a substrate. A final concentration of 0.6 nM enzyme is used in a buffer that includes 20 mM MOPS pH 7.2, 30 μM ATP/γ^33P-ATP and 25 µM substrate. Compounds are added in DMSO solution to a final DMSO concentration of 2.5%. The reaction is allowed to proceed for 20 minutes before addition of excess orthophosphoric acid to quench activity. The reaction mixture is transferred to a phosphocellulose filter plate where the peptide binds and the unused ATP is washed away. After washing, scintillant is added and the incorporated activity measured by scintillation counting.
The % inhibition of the PKB activity is calculated and plotted in order to determine the concentration of test compound required to inhibit 50% of the PKB activity (IC50).

T1 sequence (P31751 with tags, fused parts or gaps limits assumed): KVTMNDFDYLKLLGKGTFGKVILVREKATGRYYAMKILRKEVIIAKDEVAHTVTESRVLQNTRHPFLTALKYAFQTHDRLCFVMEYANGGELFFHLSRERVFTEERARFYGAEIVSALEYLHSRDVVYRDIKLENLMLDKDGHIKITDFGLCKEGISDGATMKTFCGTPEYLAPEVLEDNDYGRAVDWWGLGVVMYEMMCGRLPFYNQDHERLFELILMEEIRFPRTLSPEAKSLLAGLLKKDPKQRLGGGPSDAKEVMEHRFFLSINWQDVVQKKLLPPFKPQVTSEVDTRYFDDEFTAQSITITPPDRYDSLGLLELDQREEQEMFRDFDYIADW

Row | pIC50 | Compound
1 | > 7.00 | Cc1ccc2nc(C3(N)CCN(c4ncnc5[nH]ccc45)CC3)[nH]c2c1 [Example 5, 4-(6-Methyl-1H-benzoimidazol-2-yl)-1-(7H-pyrrolo[2,3-d]pyrimidin-4-yl)-piperidin-4-ylamine]
2 | > 7.00 | COc1cccc2[nH]c(C3(N)CCN(c4ncnc5[nH]ccc45)CC3)nc12 [Example 9, 4-(4-Methoxy-1H-benzoimidazol-2-yl)-1-(7H-pyrrolo[2,3-d]pyrimidin-4-yl)-piperidin-4-ylamine]
3 | > 7.00 | NC1(c2nc3cnccc3[nH]2)CCN(c2ncnc3[nH]ccc23)CC1 [Example 10]
4 | > 7.00 | NC1(c2nc3ccccc3[nH]2)CCN(c2ccnc3[nH]ccc23)CC1 [Example 19, 4-(1H-benzoimidazol-2-yl)-1-(1H-pyrrolo[2,3-b]pyridin-4-yl)-piperidin-4-ylamine]
5 | > 7.00 | NC1(c2nc3ccc(Cl)cc3[nH]2)CCN(c2ccnc3[nH]ccc23)CC1 [Example 20, 4-(6-chloro-1H-benzoimidazol-2-yl)-1-(1H-pyrrolo[2,3-b]pyridin-4-yl)-piperidin-4-ylamine]
6 | > 6.00 | CNC1(c2nc3ccccc3[nH]2)CCN(c2ncnc3[nH]ccc23)CC1 [Example 33, [4-(1H-benzoimidazol-2-yl)-1-(7H-pyrrolo[2,3-d]pyrimidin-4-yl)-piperidin-4-yl]-methyl-amine]

Tested on: phosphorylation of Serine-9 residue in Glycogen Synthase Kinase-3beta as surrogate marker of cellular PKB (Akt) activity
Assay: In vitro MDA-MB-468 human breast adenocarcinoma GSK-3 phosphorylation assay
Assay type: cell-based
Conditions: MDA-MB-468 cells, 2 hours compound incubation, mean IC50, read-out: Cell pGSK3b IC50
Source text: This assay determines the ability of test compounds to inhibit phosphorylation of Serine-9 residue in Glycogen Synthase Kinase-3beta (GSK-313) as a surrogate marker of cellular PKB (Akt) activity, as assessed using Acumen Explorer Fluorescent Plate-Reader technology. A MDA-MB-468 human breast adenocarcinoma cell line (LGC Promochem, Teddington, Middlesex, UK, Catalogue No. HTB-132) was routinely maintained in Dulbecco's modified Eagle's growth medium (DMEM; Invitrogen Limited, Paisley, UK Catalogue No. 11966-025) containing 10% heat-inactivated foetal calf serum (FCS; Sigma, Poole, Dorset, UK, Catalogue No. F0392) and 1% L-glutamine (Gibco, Catalogue No. 25030-024) at 37° C. with 5% CO2 up to a confluency of 70-90%.
For the phosphorylation assay, the cells were detached from the culture flask using Trypsin-EDTA (Invitrogen Limited, Catalogue No. 25300-062) and seeded into the wells of a black transparent-bottom Corning Costar Polystyrene 96 well plate (Fisher Scientific UK, Loughborough, Leicestershire, UK; Catalogue No. 3904 and DPS-130-020K) at a density of 5000 cells per well in 100 μl of complete growth media. The cells were incubated overnight at 37° C. with 5% CO2 to allow them to adhere.
On day 2, the cells were treated with test compounds and incubated for 2 hours at 37° C. with 5% CO2. Test compounds were prepared as 10mM stock solutions in DMSO and dosed directly to required concentration into test wells using non-contact (acoustic dispensing of multiple 2.5 nl droplets directly into assay wells) ECHO dosing technology (Labcyte Inc Sunnyvale, Calif., USA). Each plate contained control wells without test compound.
20 μl of fixing buffer (Phosphate Buffered Saline (PBS) containing 10% formaldehyde; Sigma; Catalogue No. F1635) was then added to each well to give a final well concentration 1.6%. Plates were then incubated for 30 minutes at room temperature prior to the fixative being removed. Each well was washed once with 250 μl of PBS and then 50 μl PBS added to each well. PBS was then aspirated and cells permeabilised and blocked by incubating each well with 50 μl of permeabilisation/blocking buffer (PBS containing 0.5% Tween 20 (Sigma; Catalogue No. P5927) and 5% Marvel Milk Powder (Andrews Pharmacy Ltd, Macclesfield, Cheshire, UK; Catalogue No. APC100199)) for 1 hour at room temperature prior to staining.
Following removal of Perm/Block buffer, 50 μl of primary anti-phospho-GSK-3β antibody (Cell Signalling Technology (New England Biolabs (Uk) Ltd.), Hitchin, Hertfordshire, UK; Catalogue No.9336 diluted 1:400 in Blocking buffer (PBS containing 5% Marvel and 0.05% Tween/Polysorbate 20) was added to each well and incubated overnight at 4° C.
Each well was washed three times in 250 μl of wash buffer (PBS containing 0.05% polysorbate 20), and cells incubated for 1 hour at room temperature with 50 μl of secondary fluorescently-labelled anti-rabbit Alexa Fluor 488 antibody (Molecular Probes, Invitrogen Limited, Catalogue No. A11008) diluted 1:750 in blocking buffer. Plates were washed three times in 250 μl of wash buffer and stored containing 50 μl of PBS at 4° C. until required.
Plates were analysed using an Acumen Explorer Plate-reader to quantify level of fluorescent signal that represents quantity of phosphorylated-GSK-313.
IC50 calculation—IC50 is the concentration of compound required to give 50% effect over the range of activity affected by the compound, between maximum (no compound) and minimum (excess level of compound) response control data. IC50 values were determined by fitting background corrected, dose response assay data to a 4 parameter logistic curve fit equation model with the minimum response set to zero. This was done using an in-house developed algorithm within the Origin graphing software package (OriginLab Corporation, Northampton, Mass., USA). […]

Row | Compound | pIC50
7 | NC1(c2nc3c(-c4cncc(F)c4)cccc3[nH]2)CCN(c2ncnc3[nH]ccc23)CC1 [Example 96, 4-[4-(5-fluoropyridin-3-yl)-1H-benzimidazol-2-yl]-1-(7H-pyrrolo[3,2-e]pyrimidin-4-yl)piperidin-4-amine] | 7.36
8 | Cc1ccc2[nH]c(C3(CN)CCN(c4ncnc5[nH]ccc45)CC3)nc2c1 [Example 97, (4-(5-methyl-1H-benzo[d]imidazol-2-yl)-1-(7H-pyrrolo[2,3-d]pyrimidin-4-yl)piperidin-4-yl)methanamine] | 7.07
9 | Cc1ccc2[nH]c(C3(CN)CCN(c4ncnc5[nH]cc(Br)c45)CC3)nc2c1 [Example 98, (1-(5-bromo-7H-pyrrolo[2,3-d]pyrimidin-4-yl)-4-(5-methyl-1H-benzo[d]imidazol-2-yl)piperidin-4-yl)methanamine] | 6.74
10 | NCC1(c2nc3c(-c4ccccc4)cccc3[nH]2)CCN(c2ncnc3[nH]ccc23)CC1 [Example 99, (4-(4-phenyl-1H-benzo[d]imidazol-2-yl)-1-(7H-pyrrolo[2,3-d]pyrimidin-4-yl)piperidin-4-yl)methanamine] | 7.82
11 | Cn1cc(-c2cccc3[nH]c(C4(CN)CCN(c5ncnc6[nH]ccc56)CC4)nc23)cn1 [Example 100] | 7.85
12 | NCC1(c2nc3c(C4CCOC4)cccc3[nH]2)CCN(c2ncnc3[nH]ccc23)CC1 (stereo not drawn) [Example 101, [4-[4-(oxolan-3-yl)-1H-benzimidazol-2-yl]-1-(7H-pyrrolo[3,2-e]pyrimidin-4-yl)piperidin-4-yl]methanamine] | 8.03
13 | NC1(c2nc3c(-c4ccoc4)cccc3[nH]2)CCN(c2ncnc3[nH]ncc23)CC1 [Example 111, 4-(4-furan-3-yl-1H-benzo[d]imidazol-2-yl)-1-(1H-pyrazolo[3,4-d]pyrimidin-4-yl)piperidin-4-amine] | 6.96
14 | CS(=O)(=O)c1ccccc1-c1cccc2nc(C3(N)CCN(c4ncnc5[nH]ccc45)CC3)[nH]c12 [Example 112, 4-[7-(2-methylsulfonylphenyl)-1H-benzimidazol-2-yl]-1-(7H-pyrrolo[3,2-e]pyrimidin-4-yl)piperidin-4-amine] | 6.52
15 | CS(=O)(=O)Cc1cccc(-c2cccc3[nH]c(C4(N)CCN(c5ncnc6[nH]ccc56)CC4)nc23)c1 [Example 115, 4-(4-(3-(methylsulfonylmethyl)phenyl)-1H-benzo[d]imidazol-2-yl)-1-(7H-pyrrolo[2,3-d]pyrimidin-4-yl)piperidin-4-amine] | 6.57
16 | CS(=O)(=O)Cc1ccccc1-c1cccc2[nH]c(C3(N)CCN(c4ncnc5[nH]ccc45)CC3)nc12 [Example 116, 4-(4-(2-(methylsulfonylmethyl)phenyl)-1H-benzo[d]imidazol-2-yl)-1-(7H-pyrrolo[2,3-d]pyrimidin-4-yl)piperidin-4-amine] | 7.33

Second part, the molecule after the results:

Row | pIC50 | Compound
17 | 7.48 | NC1(c2nc3c(-c4ccccc4)cccc3[nH]2)CCN(c2ncnc3[nH]cnc23)CC1 [Example 103, 4-(4-Phenyl-1H-benzimidazol-2-yl)-1-(9H-purin-6-yl)piperidin-4-amine]
18 | 6.92 | COc1ccc(-c2cccc3[nH]c(C4(N)CCN(c5ncnc6[nH]cnc56)CC4)nc23)cc1 [Example 104, 4-[4-(4-methoxyphenyl)-1H-benzimidazol-2-yl]-1-(9H-purin-6-yl)piperidin-4-amine]
19 | 6.70 | CS(=O)(=O)c1ccc(-c2cccc3[nH]c(C4(N)CCN(c5ncnc6[nH]cnc56)CC4)nc23)cc1 [Example 105, 4-[4-(4-methylsulfonylphenyl)-1H-benzimidazol-2-yl]-1-(9H-purin-6-yl)piperidin-4-amine]
20 | 7.28 | NC1(c2nc3c(-c4ccoc4)cccc3[nH]2)CCN(c2ncnc3[nH]cnc23)CC1 [Example 106, 4-(4-furan-3-yl-1H-benzimidazol-2-yl)-1-(9H-purin-6-yl)piperidin-4-amine]
21 | 6.46 | NC1(c2nc3c(-c4ccccc4)cccc3[nH]2)CCN(c2ncnc3[nH]ncc23)CC1 [Example 108, 4(4-phenyl-1H-benzo[d]imidazol-2-yl)-1-(1H-pyrazolo[3,4-d]pyrimidin-4-yl)piperidin-4-amine]
22 | 6.19 | COc1ccc(-c2cccc3[nH]c(C4(N)CCN(c5ncnc6[nH]ncc56)CC4)nc23)cc1 [Example 109, 4-[4-(4-methoxyphenyl)-1H-benzo[d]imidazol-2-yl)-1-(1H-pyrazolo[3,4-d]pyrimidin-4-yl)piperidin-4-amine]
23 | 6.31 | CS(=O)(=O)c1ccc(-c2cccc3[nH]c(C4(N)CCN(c5ncnc6[nH]ncc56)CC4)nc23)cc1 [Example 110, 4-[4-(4-methylsulfonylphenyl)-1H-benzo[d]imidazol-2-yl)-1-(1H-pyrazolo[3,4-d]pyrimidin-4-yl)piperidin-4-amine]
24 | 7.42 | NCc1cc(-c2cccc3[nH]c(C4(N)CCN(c5ncnc6[nH]ccc56)CC4)nc23)ccc1F [Example 113, 4-(4-(3-(aminomethyl)-4-fluorophenyl)-1H-benzo[d]imidazol-2-yl)-1-(7H-pyrrolo[2,3-d]pyrimidin-4-yl)piperidin-4-amine]
